Experimental data published in patent publication US20210386714A1, “DRUG AND GENE THERAPY TO TREAT HIGH MYOPIA AND OTHER OCULAR DISORDERS WITH ENLARGED EYE GLOBES” (City University of Hong Kong, priority 2020, published 2021).
Entries after “also recorded” stand apart in the source; their conditions may differ.

Key:
[1] = system: SREBP2 transcriptional targets and Lrp2 in mouse RPE; assay: mouse RPE explant model, mRNA level by qPCR; format: cell-based
Description: Eyes were quickly removed from the euthanized mouse and dipped in 70% ethanol for decontamination. Under a dissecting stereomicroscope, connective tissues and muscles were carefully removed. After washing twice in PBS, eyes were immersed in warm culture medium (DMEM:F12+10% FBS). Cornea was cutoff using curved scissors, and lens was pulled out gently with tweezers. Or a serrate was cut off to remove iris and cornea. Retina and optic nerve were carefully and completely removed from eye cups. Four radial cuts were made to enable flat-mounting of eye cups. Each eye cup was transferred onto the center of a floating polycarbonate nucleopore filter membrane (Whatman 110406, 0.2 Micron) placed in 6-well plates with the RPE side facing down. The freshly prepared BF175 stock solution was added to the full culture medium to a final BF175 concentration of 12.5 uM. Half of the medium was replaced with fresh medium on the second day. RPE flat-mounts were harvested at 48 hr in explant and processed for RPE isolation and RNA extraction.
Eyecups without retina and optic nerve tissues were dissected as described in the RPE explant section. Two eyes of the same mouse were pooled in one tube and processed together. RPE were incubated in papain solution (Worthington) for 15 minutes. After washing twice in warm medium, RPE were triturated with 600 μl pipette tip gently to dissociate the pigmented RPE cells from sclera. Resuspended cell solution was transferred to a clean tube and spun down at 600 g.
RNAs were converted to cDNA using PrimeScript RT reagent kit with gDNA Eraser (Takara). qPCR was performed using PowerUp Sybr Green Master Mix (Thermofisher) on QuantStudio 3 Real-Time PCR stems (Applied Biosystems). Gapdh was used as the normalizing control. qPCR primers were listed in Supplementary Information.

[2] = system: eye enlargement induced by Lrp2 knockdown (AAV8-Best1-Lrp2 sh1); assay: eye globe dimension measurement after subretinal co-injection in Lrp2 knockdown eyes; format: in vivo, mouse; conditions: subretinal co-injection with virus at P0, BF175 12.5 uM
Protocol: Subretinal injection into P0 (P2 for AAV-RK-viruses) neonate eyes was performed as known in the art. Approximately 0.25 μl of viruses in PBS was injected into the subretinal space using a pulled angled glass pipette controlled by a FemtoJet (Eppendorf). BF175 stock solution (25 mM in DMSO) was first mixed with Tween-20 (Sigma-Aldrich) at a ratio of 5:1 in order to help BF175 dissolve in PBS. Then the mixed solution was added to the virus to a final BF175 concentration of 12.5 uM. The vehicle treatment was virus added with the same amount of DMSO with Tween-20. For animals used for qPCR and RNA-seq, both left and right eyes were injected and used for RNA extraction. For animals used for eye size measurement or other phenotype characterizations, only the right eye of the animal was injected, and the fellow left eye was uninjected for with-in animal controls.
CD-1 mice were sacrificed at indicated ages. Eyes were enucleated, and connective tissues and muscles were carefully removed using tweezers and scissors. Eyes were immersed in PBS in 6 cm petri dish and imaged under a Nikon SMZ800N dissection scope with 2× magnification. ED and AL were measured in imageJ and converted to millimeters. OCT

[3] = mouse RPE explant, 12.5 uM BF175 in culture medium, 48 hr

SMILES | mRNA level of Hmgcr [1, 3] | mRNA level of Ldlr [1, 3] | mRNA level of Lrp2 (Lrp2 gene expression in RPE) [1, 3] | Lrp2 sh1-induced increase in eye size [2] | Lrp2 gene expression in RPE ([1]; RPE cells, Fatostatin, concentration not given)
CC1(C)OB(c2ccc(/C=C/c3cc(Cl)cc(Cl)c3)cc2)OC1(C)C [BF175] | reduced | reduced | significantly increased | rescued; also recorded: effectively suppressed | 
Br.CCCc1cc(-c2nc(-c3ccc(C)cc3)cs2)ccn1 [Fatostatin, reference compound] |  |  |  |  | increases
